We go through six compounds from patent US4111923A, “Octapeptides and methods for their production” (Parke, Davis & Company, priority 1976, dated 1978).

In this assay the test system is LRF-induced luteinizing hormone (LH) release in rat anterior pituitary cell cultures. Description: In vitro test in rat anterior pituitary cell cultures: inhibition of LRF-induced LH release into the culture medium. Type of assay: cell-based. As for the experimental part:
octapeptides of this invention are screened for LRF antagonist activity in vitro using rat anterior pituitary cell cultures as described by Vale et al. [Endocrinology, 91, 562 (1972)]. The inhibition of LRF-induced luteinizing hormone (LH) release into the culture medium is the endpoint in this in vitro bioassay. Active peptides are then tested in vivo by the procedures of Humphrey et al. [Endocrinology, 92, 1515 (1972)]. Antagonist activity is assessed by the inhibition of LRF-induced LH release in the female rat and LRF-induced ovulation in the rabbit.
Following are the results of the above in vitro tests on certain preferred compounds.

Setting [1] is: compound 1×10^-8 molar, LRF 5×10^-10, LRF control 46.58, saline control 9.10.
Setting [2] is: compound 1×10^-9 molar, LRF 5×10^-10, LRF control 46.58, saline control 9.10.
[3] abbreviates: compound 5×10^-8 molar, LRF 5×10^-10, LRF control 46.58, saline control 9.10.
Where [4] appears, read: compound 5×10^-9 molar, LRF 5×10^-10, LRF control 46.58, saline control 9.10.
Setting [5] is: compound 1×10^-8 molar, LRF 3.5×10^-10, LRF control 42.38, saline control 8.72.
Setting [6] is: compound 1×10^-9 molar, LRF 3.5×10^-10, LRF control 42.38, saline control 8.72.
Setting [7] is: compound 1×10^-10 molar, LRF 3.5×10^-10, LRF control 42.38, saline control 8.72.
Where [8] appears, read: compound 2×10^-9 molar, LRF 3.5×10^-10, LRF control 42.38, saline control 8.72.
Setting [9] is: compound 2.5×10^-10 molar, LRF 3.5×10^-10, LRF control 42.38, saline control 8.72.
Where [10] appears, read: compound 3.5×10^-9 molar, LRF 3.5×10^-10, LRF control 42.38, saline control 8.72.
The mark [11] stands for this setting: compound 6×10^-9 molar, LRF 3.5×10^-10, LRF control 42.38, saline control 8.72.
The mark [12] stands for this setting: compound 6×10^-10 molar, LRF 3.5×10^-10, LRF control 42.38, saline control 8.72.
[13] abbreviates: first series, compound 1×10^-8 molar, LRF 5×10^-10, LRF control 52.80, saline control 13.28.
Setting [14] is: first series, compound 1×10^-9 molar, LRF 5×10^-10, LRF control 52.80, saline control 13.28.
The mark [15] stands for this setting: first series, compound 1×10^-10 molar, LRF 5×10^-10, LRF control 52.80, saline control 13.28.
The mark [16] stands for this setting: first series, compound 2.5×10^-9 molar, LRF 5×10^-10, LRF control 52.80, saline control 13.28.
Setting [17] is: first series, compound 2.5×10^-10 molar, LRF 5×10^-10, LRF control 52.80, saline control 13.28.
[18] abbreviates: first series, compound 5×10^-9 molar, LRF 5×10^-10, LRF control 52.80, saline control 13.28.
[19] abbreviates: first series, compound 5×10^-10 molar, LRF 5×10^-10, LRF control 52.80, saline control 13.28.
Setting [20] is: second series, compound 1×10^-9 molar, LRF 5×10^-10, LRF control 69.43, saline control 18.17.
[21] abbreviates: second series, compound 1×10^-10 molar, LRF 5×10^-10, LRF control 69.43, saline control 18.17.
Setting [22] is: second series, compound 2.5×10^-9 molar, LRF 5×10^-10, LRF control 69.43, saline control 18.17.
[23] abbreviates: second series, compound 2.5×10^-10 molar, LRF 5×10^-10, LRF control 69.43, saline control 18.17.
The mark [24] stands for this setting: second series, compound 5×10^-10 molar, LRF 5×10^-10, LRF control 69.43, saline control 18.17.
Where [25] appears, read: compound 2×10^-8 molar, LRF 3.5×10^-10, LRF control 42.38, saline control 8.72.

Non-standard residues stand in square brackets, D forms with d. Residues, ends and D or L forms follow the SMILES beside them. *: point of attachment. Cbz = O=C(OCc1ccccc1)*; Bn = c1ccc(C*)cc1

Take `CCNC(=O)[C@@H]1CCCN1C(=O)[C@H](CCCNC(=N)N)NC(=O)[C@H](CC(C)C)NC(=O)[C@@H](Cc1ccccc1)NC(=O)[C@H](Cc1ccc(O)cc1)NC(=O)[C@H](CO)NC(=O)[C@H](Cc1c[nH]c2ccccc12)NC(=O)[C@H](CCC(N)=O)NC(=O)OCc1ccccc1` [N^α -Benzyloxycarbonyl-L-glutaminyl-L-tryptophyl-L-seryl-L-tyrosyl-D-phenylalanyl-L-leucyl-L-arginyl-L-proline N-ethylamide] (Cbz-QWSY[dF]LRP-NHEt): the “% LH Release Inhibition” value under setting [1] was 71%, the “% LH Release Inhibition” value under setting [2] is given as 23%, the “% LH Release Inhibition” value under setting [3] is listed as 95% and the “% LH Release Inhibition” value under setting [4] amounted to 42%. The “LH Value” under setting [1] worked out at 19.91 ng/mL, the “LH Value” under setting [2] is 38.13 ng/mL, the “LH Value” under setting [3] turned out to be 11.16 ng/mL and the “LH Value” under setting [4] was 30.85 ng/mL.
Regarding `CCNC(=O)[C@@H]1CCCN1C(=O)[C@H](CCCNC(=N)N)NC(=O)[C@H](CC(C)C)NC(=O)[C@@H](Cc1ccccc1)NC(=O)[C@H](Cc1ccc(O)cc1)NC(=O)[C@H](CO)NC(=O)[C@H](Cc1c[nH]c2ccccc12)NC(=O)[C@H](COCc1ccccc1)NC(=O)OCc1ccccc1.Cl` [N^α -Benzyloxycarbonyl-O-benzyl-L-seryl-L-tryptophyl-L-seryl-L-tyrosyl-D-phenylalanyl-L-leucyl-L-arginyl-L-proline N-ethylamide hydrochloride] (Cbz-S(Bn)WSY[dF]LRP-NHEt), the “% LH Release Inhibition” value under setting [5] came to 99%; the “% LH Release Inhibition” value under setting [6] was 68%; the “% LH Release Inhibition” value under setting [7] was determined as 18%; the “% LH Release Inhibition” value under setting [8] is 83%; the “% LH Release Inhibition” value under setting [9] worked out at 37%; the “% LH Release Inhibition” value under setting [10] is reported as 93%. The “% LH Release Inhibition” value under setting [11] was 93% and the “% LH Release Inhibition” value under setting [12] was found to be 50%. Further, the “LH Value” stood at 9.16 ng/mL under setting [5]; 19.35 ng/mL under setting [6]; 36.48 ng/mL under setting [7]; 14.48 ng/mL under setting [8]; 29.88 ng/mL under setting [9]; 11.16 ng/mL under setting [10]. In addition, the “LH Value” was 10.95 ng/mL under setting [11] and 25.41 ng/mL under setting [12].
Turning to “LRF: luteinizing hormone releasing factor, also referred to as luteinizing hormone releasing hormone, or LH-RH; stimulates secretion of luteinizing hormone (QHWSYGLRPG; Gonadoliberin-1; UniProt P01148 24-33, looked up) [reference compound]”, the “LH Value” reads like this: (LRF alone 3.5×10^-10 molar, saline control 8.72) 42.38 ng/mL; (LRF alone 5×10^-10 molar, saline control 9.10) 46.58 ng/mL; (first series, LRF alone 5×10^-10 molar, saline control 13.28) 52.80 ng/mL; (second series, LRF alone 5×10^-10 molar, saline control 18.17) 69.43 ng/mL.
Turning to “N^α -BENZYLOXYCARBONYL-O-BENZYL-L-SERYL-L-TRYPTOPHYL-L-SERYL-L-TYROSYL-D-PENTAMETHYLPHENYLALANYL-L-LEUCYL-L-ARGINYL-L-PROLINE N-ETHYLAMIDE”, the “% LH Release Inhibition” value was found to be 104% under setting [13]; 91% under setting [14]; 36% under setting [15]; 105% under setting [16]; 47% under setting [17]; 100% under setting [18]. For the same compound, the “% LH Release Inhibition” value by setting is: under setting [19], 70%; under setting [20], 104%; under setting [21], 46%; under setting [22], 98%; under setting [23], 77%; under setting [24], 90%. For the same compound, the “LH Value” under setting [13] came to 11.58 ng/mL; the “LH Value” under setting [14] worked out at 16.69 ng/mL; the “LH Value” under setting [15] came out at 38.59 ng/mL; the “LH Value” under setting [16] came to 11.35 ng/mL; the “LH Value” under setting [17] came out at 34.06 ng/mL; the “LH Value” under setting [18] came to 13.16 ng/mL. Further, the “LH Value” under setting [19] was 25.16 ng/mL; the “LH Value” under setting [20] worked out at 16.00 ng/mL; the “LH Value” under setting [21] is 46.11 ng/mL; the “LH Value” under setting [22] stood at 19.09 ng/mL; the “LH Value” under setting [23] came to 30.08 ng/mL; the “LH Value” under setting [24] was 23.26 ng/mL.
Consider “N^α -Benzyloxycarbonyl-N^γ -benzyl-L-glutaminyl-L-tryptophyl-L-seryl-L-tyrosyl-D-phenylalanyl-L-leucyl-L-arginyl-L-proline N-ethylamide”, for which the “% LH Release Inhibition” value is, setting by setting: under setting [5], 92%; under setting [6], 56%; under setting [7], 35%; under setting [25], 94%; under setting [8], 60%; under setting [9], 20%. Moreover, the “% LH Release Inhibition” value was 61% under setting [10], 81% under setting [11] and 51% under setting [12]. The “LH Value” is 11.28 ng/mL under setting [5]; 23.66 ng/mL under setting [6]; 30.60 ng/mL under setting [7]; 10.77 ng/mL under setting [25]; 22.09 ng/mL under setting [8]; 35.62 ng/mL under setting [9]. Moreover, the “LH Value” runs as follows: under setting [10], 21.76 ng/mL; under setting [11], 15.07 ng/mL; under setting [12], 25.13 ng/mL.
Take “N^α -Benzyloxycarbonyl-O-benzyl-L-seryl-L-tryptophyl-L-seryl-L-tyrosyl-DL-pentamethylphenylalanyl-L-leucyl-L-arginyl-L-proline N-ethylamide”: the “% LH Release Inhibition” value reads like this: under setting [13], 102%; under setting [14], 89%; under setting [16], 102%; under setting [17], 61%; under setting [18], 96%; under setting [19], 62%. For the same compound, the “% LH Release Inhibition” value is, setting by setting: under setting [20], 100%; under setting [21], 42%; under setting [22], 108%; under setting [23], 65%; under setting [24], 87%. Moreover, the “LH Value” was 12.61 ng/mL under setting [13]; 17.58 ng/mL under setting [14]; 12.47 ng/mL under setting [16]; 28.53 ng/mL under setting [17]; 14.80 ng/mL under setting [18]; 28.31 ng/mL under setting [19]. Also, the “LH Value” came out at 18.35 ng/mL under setting [20]; 48.03 ng/mL under setting [21]; 13.91 ng/mL under setting [22]; 36.04 ng/mL under setting [23]; 24.94 ng/mL under setting [24].
